In patent US12559509B1, “Citrate coordination complex of an orally-delivered beta-lactamase inhibitor and uses thereof” (priority 2023, dated 2026):
Structures can show the parent of a compound that is named as a salt. Values belong to the compound of their own block, whether it stands above or below them.

How the values were obtained:
[1] = Chemical stability of drug substance controls and binary blend, HPLC purity; assay type: physicochemical; conditions: for degradation (in words): controls and binary blend, 25° C. and 40° C., through 12 weeks
[2] = Dissolution testing (Apparatus II method) of capsule prototypes; assay type: physicochemical; conditions: FDC capsule with ceftibuten dihydrate, 900 mL pH 6.8 50 mM sodium bicarbonate buffer, 75 RPM paddle
Procedure: In some embodiments, the citrate coordination complex allows for the development of a dry powder, immediate release formulation as compared to other forms, such as the ethanolate, which could not be formulated directly as an immediate release formulation. […] Dissolution testing (Apparatus II method) was performed using 900 mL of pH 6.8 50 mM sodium bicarbonate buffer solution and a 75 RPM paddle speed.

[3] = Excipient compatibility at 50° C., HPLC purity; assay type: physicochemical; conditions: for chemical stability in the presence of the excipients (in words): accelerated data
Procedure: The compatibility of the drug substances with select functional excipients was confirmed by comparing the assay and purity of samples stored at 50° C. for 5 weeks to the drug substance control samples. The excipients tested included: microcrystalline cellulose (binder); magnesium stearate (lubricant); sodium starch glycolate (disintegrant); and colloidal silica (glidant). […] The samples were transferred to a 3-dram glass vial with a tight-fitting cap and placed in a 50° C. oven.

[4] = Dynamic Vapor Sorption (DVS) analysis; assay type: physicochemical; conditions: for solid form after DVS cycle, by XRPD: 0% RH to 98% RH and back to 0% RH; for weight gain: above 85% RH (up to 98% RH); for weight gain with increasing RH: between 0% RH and 85% RH
Procedure: Moisture sorption/desorption data were collected on a DVS-intrinsic vapor sorption analyzer (Surface Measurement Systems NA, Allentown, PA, USA) and operated with DVS-intrinsic control software (Version 1.0.5.1). Samples were not dried prior to analysis. Sorption and desorption data were collected over a range from 5% to 98% relative humidity (RH) via 10% RH increments under a nitrogen purge. The equilibrium criterion used for analysis was less than 0.005% weight change in 10 min with a maximum equilibration time of 3 h.
The DVS isotherm of Form B is qualitatively similar to that of Form A. Form B lost 0.1 wt % upon equilibration at ˜0% RH.

[5] = monkeys, reported; cited from earlier work
[6] = drug substance control, 25° C. Storage, 0 weeks
[7] = drug substance control, 25° C. Storage, 5 weeks
[8] = drug substance control, 25° C. Storage, 8 weeks
[9] = drug substance control, 25° C. Storage, 12 weeks
[10] = drug substance control, 40° C. Storage, 0 weeks
[11] = drug substance control, 40° C. Storage, 5 weeks
[12] = drug substance control, 40° C. Storage, 8 weeks
[13] = drug substance control, 40° C. Storage, 12 weeks
[14] = in binary Blend, 25° C. Storage, 0 weeks
[15] = in binary Blend, 25° C. Storage, 5 weeks
[16] = in binary Blend, 25° C. Storage, 8 weeks
[17] = in binary Blend, 25° C. Storage, 12 weeks
[18] = in binary Blend, 40° C. Storage, 0 weeks
[19] = in binary Blend, 40° C. Storage, 8 weeks
[20] = in binary Blend, 40° C. Storage, 12 weeks

- solid form after DVS cycle, by XRPD [4]: remained crystalline, as Form A
- hygroscopicity (in words) ([4]; 0-85% RH): non-hygroscopic
- Change In Mass (%)-ref, Desorption ([4]; Target RH 0.0 %): −0.023%
- Change In Mass (%)-ref, Sorption ([4]; Target RH 0.0 %): 0.000%
- Change In Mass (%)-ref, Desorption ([4]; Target RH 5.0 %): 0.012%
- Change In Mass (%)-ref, Hysteresis ([4]; Target RH 5.0 %): −0.006%
- Change In Mass (%)-ref, Sorption ([4]; Target RH 5.0 %): 0.019%
- Change In Mass (%)-ref, Desorption ([4]; Target RH 15.0 %): 0.065%
- Change In Mass (%)-ref, Hysteresis ([4]; Target RH 15.0 %): −0.008%
- Change In Mass (%)-ref, Sorption ([4]; Target RH 15.0 %): 0.073%
- Change In Mass (%)-ref, Desorption ([4]; Target RH 25.0 %): 0.119%
- Change In Mass (%)-ref, Hysteresis ([4]; Target RH 25.0 %): −0.003%
- Change In Mass (%)-ref, Sorption ([4]; Target RH 25.0 %): 0.121%
- Change In Mass (%)-ref, Desorption ([4]; Target RH 35.0 %): 0.167%
- Change In Mass (%)-ref, Hysteresis ([4]; Target RH 35.0 %): 0.008%
- Change In Mass (%)-ref, Sorption ([4]; Target RH 35.0 %): 0.159%
- Change In Mass (%)-ref, Desorption ([4]; Target RH 45.0 %): 0.218%
- Change In Mass (%)-ref, Hysteresis ([4]; Target RH 45.0 %): 0.013%
- Change In Mass (%)-ref, Sorption ([4]; Target RH 45.0 %): 0.205%
- Change In Mass (%)-ref, Desorption ([4]; Target RH 55.0 %): 0.279%
- Change In Mass (%)-ref, Hysteresis ([4]; Target RH 55.0 %): 0.019%
- Change In Mass (%)-ref, Sorption ([4]; Target RH 55.0 %): 0.259%
- Change In Mass (%)-ref, Desorption ([4]; Target RH 65.0 %): 0.356%
- Change In Mass (%)-ref, Hysteresis ([4]; Target RH 65.0 %): 0.038%
- Change In Mass (%)-ref, Sorption ([4]; Target RH 65.0 %): 0.318%
- Change In Mass (%)-ref, Desorption ([4]; Target RH 85.0 %): 0.604%
- Change In Mass (%)-ref, Hysteresis ([4]; Target RH 85.0 %): 0.102%
- Change In Mass (%)-ref, Sorption ([4]; Target RH 85.0 %): 0.502%
- Change In Mass (%)-ref, Desorption ([4]; Target RH 95.0 %): 4.054%
- Change In Mass (%)-ref, Hysteresis ([4]; Target RH 95.0 %): 0.764%
- Change In Mass (%)-ref, Sorption ([4]; Target RH 95.0 %): 3.289%
- Change In Mass (%)-ref, Desorption ([4]; Target RH 98.0 %): 4.006%
- Change In Mass (%)-ref, Sorption ([4]; Target RH 98.0 %): 4.006%
- Change In Mass (%)-ref, Desorption ([4]; Target RH […]): 0.457%
- Change In Mass (%)-ref, Hysteresis ([4]; Target RH […]): 0.056%
- Change In Mass (%)-ref, Sorption ([4]; Target RH […]): 0.401%
- weight gain [4]: 4.0%
- weight gain with increasing RH [4]: 0.5 wt %
Structure (SMILES): CCC(=O)N[C@@H](Cc1cccc(C(=O)OCOC(=O)C(CC)CC)c1O)B1OC(=O)C(CC(=O)O)(CC(=O)O)O1 [(R)-(2-(3-((((2-ethylbutanoyl)oxy)methoxy)carbonyl)-2-hydroxyphenyl)-1-propionamidoethyl)boronic acid citrate]

- degradation (in words) [1]: temperature dependent degradation
- HPLC purity (% peak area) [1, 6]: 98.6%
- HPLC purity (% peak area) [1, 7]: 98.6%
- HPLC purity (% peak area) [1, 8]: 98.6%
- HPLC purity (% peak area) [1, 9]: 98.4%
- HPLC purity (% peak area) [1, 10]: 98.6%
- HPLC purity (% peak area) [1, 11]: 98.4%
- HPLC purity (% peak area) [1, 12]: 96.7%
- HPLC purity (% peak area) [1, 13]: 92.8%
- HPLC purity (% peak area) [1, 14]: 98.4%
- HPLC purity (% peak area) [1, 15]: 98.6%
- HPLC purity (% peak area) [1, 16]: 98.3%
- HPLC purity (% peak area) [1, 17]: 96.8%
- HPLC purity (% peak area) [1, 18]: 97.5%
- HPLC purity (% peak area) [1, 19]: 94.8%
- HPLC purity (% peak area) [1, 20]: 93.7%
- HPLC Purity (Peak Area %) Ceftibuten ([3]; 2 weeks): 99.2%
- HPLC Purity (Peak Area %) Ceftibuten ([3]; 5 weeks): 94.8%
Structure (SMILES): Nc1nc(/C(=C/CC(=O)O)C(=O)N[C@@H]2C(=O)N3C(C(=O)O)=CCS[C@H]23)cs1 [Ceftibuten dihydrate, reference compound]

- Change In Mass (%)-ref, Desorption ([4]; Target RH 0.0 %): −0.17%
- Change In Mass (%)-ref, Sorption ([4]; Target RH 0.0 %): −0.07%
- Change In Mass (%)-ref, Desorption ([4]; Target RH 5.0 %): −0.13%
- Change In Mass (%)-ref, Hysteresis ([4]; Target RH 5.0 %): −0.07%
- Change In Mass (%)-ref, Sorption ([4]; Target RH 5.0 %): −0.05%
- Change In Mass (%)-ref, Desorption ([4]; Target RH 15.0 %): −0.05%
- Change In Mass (%)-ref, Hysteresis ([4]; Target RH 15.0 %): −0.08%
- Change In Mass (%)-ref, Sorption ([4]; Target RH 15.0 %): 0.04%
- Change In Mass (%)-ref, Desorption ([4]; Target RH 25.0 %): 0.06%
- Change In Mass (%)-ref, Hysteresis ([4]; Target RH 25.0 %): −0.07%
- Change In Mass (%)-ref, Sorption ([4]; Target RH 25.0 %): 0.13%
- Change In Mass (%)-ref, Desorption ([4]; Target RH 35.0 %): 0.13%
- Change In Mass (%)-ref, Hysteresis ([4]; Target RH 35.0 %): −0.04%
- Change In Mass (%)-ref, Sorption ([4]; Target RH 35.0 %): 0.17%
- Change In Mass (%)-ref, Desorption ([4]; Target RH 45.0 %): 0.25%
- Change In Mass (%)-ref, Hysteresis ([4]; Target RH 45.0 %): −0.06%
- Change In Mass (%)-ref, Sorption ([4]; Target RH 45.0 %): 0.31%
- Change In Mass (%)-ref, Desorption ([4]; Target RH 55.0 %): 0.43%
- Change In Mass (%)-ref, Hysteresis ([4]; Target RH 55.0 %): 0.02%
- Change In Mass (%)-ref, Sorption ([4]; Target RH 55.0 %): 0.41%
- Change In Mass (%)-ref, Desorption ([4]; Target RH 65.0 %): 0.56%
- Change In Mass (%)-ref, Hysteresis ([4]; Target RH 65.0 %): 0.03%
- Change In Mass (%)-ref, Sorption ([4]; Target RH 65.0 %): 0.53%
- Change In Mass (%)-ref, Desorption ([4]; Target RH 85.0 %): 1.11%
- Change In Mass (%)-ref, Hysteresis ([4]; Target RH 85.0 %): 0.13%
- Change In Mass (%)-ref, Sorption ([4]; Target RH 85.0 %): 0.98%
- Change In Mass (%)-ref, Desorption ([4]; Target RH 95.0 %): 11.32%
- Change In Mass (%)-ref, Hysteresis ([4]; Target RH 95.0 %): 2.85%
- Change In Mass (%)-ref, Sorption ([4]; Target RH 95.0 %): 8.47%
- Change In Mass (%)-ref, Desorption ([4]; Target RH 98.0 %): 11.18%
- Change In Mass (%)-ref, Sorption ([4]; Target RH 98.0 %): 11.18%
- Change In Mass (%)-ref, Desorption ([4]; Target RH […]): 0.79%
- Change In Mass (%)-ref, Hysteresis ([4]; Target RH […]): 0.12%
- Change In Mass (%)-ref, Sorption ([4]; Target RH […]): 0.66%
- weight gain [4]: 11.2%
- weight lost upon equilibration ([4]; at ˜0% RH): 0.1 wt %
- weight gain with increasing RH [4]: ~1.0 wt %
Structure (SMILES): CCC(=O)N[C@@H](Cc1cccc(C(=O)OCOC(=O)C(CC)CC)c1O)B(O)O.O=C(O)CC(O)(CC(=O)O)C(=O)O [(R)-(2-(3-((((2-ethylbutanoyl)oxy)methoxy)carbonyl)-2-hydroxyphenyl)-1-propionamidoethyl)boronic acid citrate]
- solid form after DVS cycle, by XRPD [4]: XRPD of the sample matched that of the material before DVS analysis

The next lines start with the compound.

Structure (SMILES): CCC(=O)N[C@@H](Cc1cccc(C(=O)OCOC(=O)C(CC)CC)c1O)B1OC(=O)C(CC(=O)O)(CC(=O)O)O1 [Compound 1 citrate coordination complex, (R)-2,2′-(2-(2-(3-((((2-ethylbutanoyl)oxy)methoxy)carbonyl)-2-hydroxyphenyl)-1-propionamidoethyl)-5-oxo-1,3,2-dioxaborolane-4,4-diyl)diacetic acid]
- degradation (in words) [1]: no degradation
- HPLC purity (% peak area) [1, 6]: 100.0%
- HPLC purity (% peak area) [1, 7]: 100.0%
- HPLC purity (% peak area) [1, 8]: 100.0%
- HPLC purity (% peak area) [1, 9]: 100.0%
- HPLC purity (% peak area) [1, 10]: 100.0%
- HPLC purity (% peak area) [1, 11]: 100.0%
- HPLC purity (% peak area) [1, 12]: 100.0%
- HPLC purity (% peak area) [1, 13]: 100.0%
- HPLC purity (% peak area) [1, 14]: 100.0%
- HPLC purity (% peak area) [1, 15]: 100.0%
- HPLC purity (% peak area) [1, 16]: 100.0%
- HPLC purity (% peak area) [1, 17]: 100.0%
- HPLC purity (% peak area) [1, 18]: 100.0%
- HPLC purity (% peak area) ([1]; in binary Blend, 40° C. Storage, 5 weeks): 100.0%
- HPLC purity (% peak area) [1, 19]: 100.0%
- HPLC purity (% peak area) [1, 20]: 100.0%
- release of the drug substance ([2]; by 10 minutes): 100%
- HPLC Purity (Peak Area %) Compound 1 ([3]; 2 weeks): 100.0%
- HPLC Purity (Peak Area %) Compound 1 ([3]; 5 weeks): 100.0%
- chemical stability in the presence of the excipients (in words) [3]: comparable to the stability for the drug substance controls

Structure (SMILES): Nc1nc(/C(=C/CC(=O)O)C(=O)N[C@@H]2C(=O)N3C(C(=O)O)=CCS[C@H]23)cs1 [Ceftibuten, reference compound]
- bioavailability [5]: ~20%
- chemical stability in the presence of the excipients (in words) [3]: comparable to the stability for the drug substance controls

Structure (SMILES): CCOB1Oc2c(cccc2C(=O)OCOC(=O)C(CC)CC)C[C@@H]1NC(=O)CC [Compound 1 Ethanolate, ((2-ethylbutanoyl)oxy)methyl (R)-2-ethoxy-3-propionamido-3,4-dihydro-2H-benzo[e][1,2]oxaborinine-8-carboxylate]
- release of the drug substance ([2]; at 60 minutes): < 40%
